Like-named read-outs stand apart in the source and are kept apart here.
Assays:
uPAR = target: T1, uPAR (Homo sapiens, UniProt Q03405); experiment: Fluorescence polarization, direct binding to uPAR; conditions: excitation 530 nm, emission 600 nm
T1 construct: uPAR comprising amino acids 1-277 was expressed in Drosophila S2 cells; made in house; host or cells: Drosophila S2 cells
Protocol: Fluorescence polarization in the presence and absence of protein and were measured using identical conditions as described above.
The mP was evaluated in the a presence and absence of competing 10 μM GFD.

TMD-231 cells = experiment: xenograft mice model of breast cancer metastasis; assay type: in vivo
Protocol: in vivo Efficacy of IPR-803 in xenograft mice model of cancer. Breast Cancer Metastasis. The Example is performed as described in Wang et al. (2011) Virtual Screening Targeting the Urokinase Receptor, Biochemical and Cell-Based Studies, Synthesis, Pharmacokinetic Characterization, and Effect on Breast Tumor Metastasis. J Med Chem In press, the disclosure of which is incorporated herein in its entirety. Briefly, TMD-231 cells are inoculated into the mammary fat pad of female NOD/SCID mice. Dosing is initiated at day 15 post implantation. Animals are randomized and treated with vehicle or with test compound by daily oral gavage at a dose of 200 mg/kg.
While uPAR's effects on growth are known to be minimal, its role in promoting invasion and metastasis is widely established. To assess the effect of IPR-803 on metastasis, control and experimental animals were sacrificed and organs (lungs) were removed and evaluated for the presence of tumors. The number and size of metastasis in two to five fields per sample were calculated. A score of 4+ was given to a sample with highest metastasis index and relative metastasis in other samples are calculated (i.e., 1+, 2+, 3+) by a sample-blinded pathologist. […] For example, 11 out of 13 untreated mice developed severe (score=3) or marked (score=4) metastasis to the lung. This is compared to only 4 in the treated mice. Among the treated mice, 4 developed moderate metastasis, and another four were scored at 1 or lower, showing mild metastasis to the lungs.
IPR-803 was administered at 200 mg/kg p.o. to test animals, and conventional evaluation of cancer progression and survival measurements were made. […] It is observed that there is a greater percentage of mild an moderate outcomes in the treatment group compared to the untreated group showing a majority of severe outcomes. In addition, whole animal toxicity was evaluated by periodic measurement of weight change in test animals.

[1] = cellular studies, cytotoxicity of IPR-803; assay type: cell-based
[2] = tested on: integrins (phospho p44/42 MAPK, p44/42 MAPK, pSrc Y416, Src, pFAK Y397, FAK); experiment: Integrin signaling by gel electrophoresis; assay type: cell-based
[3] = in vivo pharmacokinetics in mice
Protocol: in vivo Pharmacokinetics of IPR-803 in mice. Compounds are administered to mice via a single dose of 200 mg/kg by oral gavage using a formulation of saline. Blood ([…]) is taken from the mice at their tails at time intervals of 1, 2, 4, 6, 8 and 10 hours (three time points from each of the 18 mice (21)) post injection. Blood plasma samples are prepared by centrifugation for quantification and HPLC-MS/MS analysis. […] The stability of the compounds in plasma is reflected by the half-life (t1/2). To gain insight into its absorption following oral dosing, intravenous bioavailability of compounds described herein is determined. Compounds are injected intravenously (IV) into the tail vein. Blood plasma samples are prepared from collected blood samples at 5, 10, 20, 45 and 120 minutes (three mice per time point). […] The levels of the compound in tumor tissue remained high even after 10 hours.

[4] = mouse, plasma, po, 200 mg/kg p.o.

T1 sequence (Q03405 23-299): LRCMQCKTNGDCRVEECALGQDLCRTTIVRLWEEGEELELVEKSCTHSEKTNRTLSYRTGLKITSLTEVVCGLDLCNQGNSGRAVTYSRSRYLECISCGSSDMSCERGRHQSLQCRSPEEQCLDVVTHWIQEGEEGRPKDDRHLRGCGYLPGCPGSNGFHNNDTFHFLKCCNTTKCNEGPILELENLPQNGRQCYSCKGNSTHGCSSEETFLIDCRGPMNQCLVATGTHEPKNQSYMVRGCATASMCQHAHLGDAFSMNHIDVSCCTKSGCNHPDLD

Structure (SMILES): O=C(O)c1cccc(Nc2cc(N3CCCCCC3)c3noc4c3c2C(=O)c2ccccc2-4)c1 [IPR-803, 3-((3-(azepan-1-yl)-6-oxo-6H-anthra[1,9-cd]isoxazol-5-yl)amino)benzoic acid]
- fluorescence polarization (mP) with increasing uPAR concentration (uPAR): showed a dose response with increasing mP
- outcome (cancer progression and survival) compared to vehicle (TMD-231 cells; 200 mg/kg p.o., n=15): statistically significant (p<0.013) improvement in outcome
- weight change (whole animal toxicity) (TMD-231 cells; 200 mg/kg p.o., n=15, vs vehicle control): No significant weight change
- number of mice scored at 1 or lower, mild metastasis to the lungs (TMD-231 cells; treated mice): four
- number of mice with moderate metastasis (TMD-231 cells; treated mice): 4
- number of mice with severe (score=3) or marked (score=4) metastasis to the lung (TMD-231 cells; treated mice): 4
- tumor volume (TMD-231 cells; treated mice, 200 mg/kg daily oral gavage, 33 day study): ~693 mm^3
- effects on tumor size (TMD-231 cells; treated vs untreated): ~10%
- cytotoxicity [1]: not cytotoxic
- signaling effect on pathways implicated with growth, such as ERK [2]: does not have a signaling affect
- Cl/F ([3]; 200 mg/kg p.o.): 0.379 L/h
- level in the primary tumor ([3]; LC/MS/MS at 1, 2, 4, 6, and 8 hour intervals): ~10 µM
- levels of the compound in tumor tissue ([3]; after 10 hours): remained high
- bioavailability ([3]; mouse, plasma, oral, 200 mg/kg, estimated from p.o. and IV data): ~4%
- AUC(0-inf) [3, 4]: 13.7 µg·h/mL
- AUC(0-t) [3, 4]: 11.3 µg·h/mL
- Tmax [3, 4]: 1 h
- half-life [3, 4]: 4.7 h
- Cmax ([3]; mouse, plasma, po, 200 mg/kg p.o., read-out: Cmax): 2.6 µg/mL
- Vd/F ([3]; mouse, plasma, po, 200 mg/kg p.o., read-out: Vdss/F): 2.23 L
- Cmax ([3]; mouse, plasma, mice, 200 mg/kg oral gavage, saline, read-out: maximum concentration (Cmax) in plasma): 5 µM
